{"source": "patent US10568936B2", "about": "“Pharmaceutical composition for transmucosal delivery and methods for treating diabetes in a subject in need thereof” (Eastgate Pharmaceuticals Inc., priority 2014, dated 2020)", "origin": "cited, not measured here", "key": {"[1]": {"settings": "eutectic mixture with menthol"}}}
{"smiles": "C[C@]12CC[C@H]3[C@@H](CCC4=CC(=O)CC[C@@]43C)[C@@H]1CC[C@@H]2O", "note": "[testosterone]", "values": [{"measurement": "Increase in the flux of testosterone", "setting": "eutectic mixture with menthol", "value": 2.8, "unit": "fold"}, {"measurement": "Further increase in skin flux", "setting": "high concentration of menthol", "value": "eight times the base line"}, {"measurement": "Increase in the solubility of testosterone in an aqueous ethanol vehicle", "setting": "[1]", "value": 2.8, "unit": "fold"}]}
